The experiment has as its system MV-4-11 cells. The experiment is described as follows: Gene expression microarray analysis (Affymetrix PrimeView) and GSEA. The conditions noted are these: ProbeSet 11727827_x_at; LIST B. In kind it is cell-based, human. Also on record: RFU PODN (11730768_x_at) / Fold change /veh PODN (11730768_x_at) / RFU LINC00158 (11744669_a_at) / Fold change /veh LINC00158 (11744669_a_at) / RFU DUSP10 (11751237_a_at) / Fold change /veh DUSP10 (11751237_a_at) / RFU ID3 (11757404_x_at) / Fold change /veh ID3 (11757404_x_at) / RFU PLEKHG5 (11737974_s_at) / Fold change /veh PLEKHG5 (11737974_s_at) / RFU LRRC4B (11730491_at) / Fold change /veh LRRC4B (11730491_at) / RFU GIMAP4 (11747438_a_at) / Fold change /veh GIMAP4 (11747438_a_at) / RFU KRT8 (11758183_x_at) / Fold change /veh KRT8 (11758183_x_at) / RFU CNN1 (11734310_a_at) / Fold change /veh CNN1 (11734310_a_at) / RFU VPS37D (11726825_at) / Fold change /veh VPS37D (11726825_at) / RFU C10orf10 (11716522_x_at) / Fold change /veh C10orf10 (11716522_x_at) / RFU KIR2DL2 /// KIR2DL4 /// KIR2DL5A /// KIR2DL5B /// KIR2DS1 /// KIR2DS2 /// KIR2DS3 /// KIR2DS4 /// KIR3DL3 /// KIR3DL3 /// KIR3DS1 (11738374_at) / Fold change /veh KIR2DL2 /// KIR2DL4 /// KIR2DL5A /// KIR2DL5B /// KIR2DS1 /// KIR2DS2 /// KIR2DS3 /// KIR2DS4 /// KIR3DL3 /// KIR3DL3 /// KIR3DS1 (11738374_at) / RFU C1QL1 (11718748_at) / Fold change /veh C1QL1 (11718748_at) / RFU TMPRSS4 (11747572_a_at) / Fold change /veh TMPRSS4 (11747572_a_at) / RFU HAMP (11756126_x_at) / Fold change /veh HAMP (11756126_x_at) / RFU RNFT2 (11725882_a_at) / Fold change /veh RNFT2 (11725882_a_at) / RFU NR4A2 (11747474_a_at) / Fold change /veh NR4A2 (11747474_a_at) / RFU ABCC12 (11746883_a_at) / Fold change /veh ABCC12 (11746883_a_at) / RFU TMEM136 (11760407_x_at) / Fold change /veh TMEM136 (11760407_x_at) / RFU CLDN22 /// WWC2 (11732394_at) / Fold change /veh CLDN22 /// WWC2 (11732394_at) / RFU HLA-DPB1 (11760878_x_at) / Fold change /veh HLA-DPB1 (11760878_x_at) / RFU SPINT1 (11716480_a_at) / Fold change /veh SPINT1 (11716480_a_at) / RFU GAP43 (11754022_s_at) / Fold change /veh GAP43 (11754022_s_at) / RFU A4GNT (11735810_at) / Fold change /veh A4GNT (11735810_at) / RFU PRB3 (11715151_x_at) / Fold change /veh PRB3 (11715151_x_at) / RFU TUBB4B (11761932_at) / Fold change /veh TUBB4B (11761932_at) / RFU CAPN14 (11732068_a_at) / Fold change /veh CAPN14 (11732068_a_at) / RFU TMCC2 (11721928_a_at) / Fold change /veh TMCC2 (11721928_a_at) / RFU IRGQ (11745062_a_at) / Fold change /veh IRGQ (11745062_a_at) / RFU FAM174B (11720279_a_at) / Fold change /veh FAM174B (11720279_a_at) / RFU TMPRSS4 (11748680_a_at) / Fold change /veh TMPRSS4 (11748680_a_at) / RFU FAM212B (11763350_a_at) / Fold change /veh FAM212B (11763350_a_at) / RFU PLEKHG5 (11743358_a_at) / Fold change /veh PLEKHG5 (11743358_a_at) / RFU ZSCAN30 (11745921_a_at) / Fold change /veh ZSCAN30 (11745921_a_at) / RFU CMKLR1 (11741424_a_at) / Fold change /veh CMKLR1 (11741424_a_at) / RFU LOC101060620 /// MAPK8IP1 (11723275_at) / Fold change /veh LOC101060620 /// MAPK8IP1 (11723275_at) / RFU SPTSSB (11747773_x_at) / Fold change /veh SPTSSB (11747773_x_at) / RFU PRSS12 (11739890_at) / Fold change /veh PRSS12 (11739890_at) / RFU BIN1 (11741810_x_at) / Fold change /veh BIN1 (11741810_x_at) / RFU WNT11 (11732464_a_at) / Fold change /veh WNT11 (11732464_a_at) / RFU C10orf10 (11716521_a_at) / Fold change /veh C10orf10 (11716521_a_at) / RFU C5orf56 (11738089_at) / Fold change /veh C5orf56 (11738089_at) / RFU CYB561 (11721691_x_at) / Fold change /veh CYB561 (11721691_x_at) / RFU ANKRD19P (11752326_a_at) / Fold change /veh ANKRD19P (11752326_a_at) / RFU OR2T12 /// OR2T33 /// OR2T8 (11738714_s_at) / Fold change /veh OR2T12 /// OR2T33 /// OR2T8 (11738714_s_at) / RFU VCAN (11748164_a_at) / Fold change /veh VCAN (11748164_a_at) / RFU JSRP1 (11732532_at) / Fold change /veh JSRP1 (11732532_at) / RFU KRTAP10-11 (11738290_x_at) / Fold change /veh KRTAP10-11 (11738290_x_at) / RFU MYO3A (11730013_a_at) / Fold change /veh MYO3A (11730013_a_at) / RFU EBF3 (11725865_a_at) / Fold change /veh EBF3 (11725865_a_at) / RFU CAMK2N1 (11719241_x_at) / Fold change /veh CAMK2N1 (11719241_x_at) / RFU C5orf56 (11738088_a_at) / Fold change /veh C5orf56 (11738088_a_at) / RFU OLFML3 (11715873_a_at) / Fold change /veh OLFML3 (11715873_a_at) / RFU LOC100653217 /// NTM (11731650_a_at) / Fold change /veh LOC100653217 /// NTM (11731650_a_at) / RFU MAPK11 (11762145_a_at) / Fold change /veh MAPK11 (11762145_a_at) / RFU FIZ1 (11724087_x_at) / Fold change /veh FIZ1 (11724087_x_at) / RFU OASL (11726364_x_at) / Fold change /veh OASL (11726364_x_at) / RFU SOX15 (11748057_x_at) / Fold change /veh SOX15 (11748057_x_at) / RFU CD79A (11719716_a_at) / Fold change /veh CD79A (11719716_a_at) / RFU HIST1H1D (11736915_at) / Fold change /veh HIST1H1D (11736915_at) / RFU CASKIN2 (11723855_a_at) / Fold change /veh CASKIN2 (11723855_a_at) / RFU LOC730098 (11760151_x_at) / Fold change /veh LOC730098 (11760151_x_at) / RFU OR4N2 (11742367_at) / Fold change /veh OR4N2 (11742367_at) / RFU PRRT2 (11749266_a_at) / Fold change /veh PRRT2 (11749266_a_at) / RFU SNX32 (11753110_a_at) / Fold change /veh SNX32 (11753110_a_at) / RFU CDHR5 (11726645_a_at) / Fold change /veh CDHR5 (11726645_a_at) / RFU RCAN1 (11760418_a_at) / Fold change /veh RCAN1 (11760418_a_at) / RFU FAM167A (11723789_a_at) / Fold change /veh FAM167A (11723789_a_at) / RFU FAM26E (11764081_at) / Fold change /veh FAM26E (11764081_at) / RFU ISYNA1 (11749810_s_at) / Fold change /veh ISYNA1 (11749810_s_at) / RFU ACY1 (11761880_at) / Fold change /veh ACY1 (11761880_at) / RFU 11764098_at / Fold change /veh 11764098_at / RFU SAMD14 (11745864_x_at) / Fold change /veh SAMD14 (11745864_x_at) / RFU NPB (11741838_a_at) / Fold change /veh NPB (11741838_a_at) / RFU TMPRSS6 (11731388_a_at) / Fold change /veh TMPRSS6 (11731388_a_at) / RFU KRTAP10-2 (11738614_at) / Fold change /veh KRTAP10-2 (11738614_at) / RFU ARHGAP8 /// PRR5-ARHGAP8 (11727945_x_at) / Fold change /veh ARHGAP8 /// PRR5-ARHGAP8 (11727945_x_at) / RFU KRTAP5-7 /// NADSYN1 (11734609_at) / Fold change /veh KRTAP5-7 /// NADSYN1 (11734609_at) / RFU RASL12 (11751679_a_at) / Fold change /veh RASL12 (11751679_a_at) / RFU CDKN2B (11736163_a_at) / Fold change /veh CDKN2B (11736163_a_at) / RFU PRF1 (11729649_at) / Fold change /veh PRF1 (11729649_at) / RFU, ZNF638 /// ZNF638-IT1 / Fold change vs veh, ZNF638 /// ZNF638-IT1 / RFU, PANK3 / Fold change vs veh, PANK3 / RFU, SH3YL1 / Fold change vs veh, SH3YL1 / RFU, ZEB2 / Fold change vs veh, ZEB2 / RFU, NRIP1 / Fold change vs veh, NRIP1 / RFU, PTTG1IP / Fold change vs veh, PTTG1IP / RFU, CAPN2 / Fold change vs veh, CAPN2 / RFU, MED14 / Fold change vs veh, MED14 / RFU, SNORA58 / Fold change vs veh, SNORA58 / RFU, C1orf63 / Fold change vs veh, C1orf63 / RFU, LRRFIP1 / Fold change vs veh, LRRFIP1 / RFU, NDUFAF7 / Fold change vs veh, NDUFAF7 / RFU, SLC12A2 / Fold change vs veh, SLC12A2 / RFU, IBTK / Fold change vs veh, IBTK / RFU, ESF1 / Fold change vs veh, ESF1 / Fold change vs veh, TMEM50B / RFU, TAOK1 / Fold change vs veh, TAOK1 / RFU, ACBD3 / Fold change vs veh, ACBD3 / RFU, TMA16 / Fold change vs veh, TMA16 / RFU, RWDD3 / Fold change vs veh, RWDD3 / RFU, BCAT1 / Fold change vs veh, BCAT1 / RFU, EDEM3 / Fold change vs veh, EDEM3 / RFU, TMEM33 / Fold change vs veh, TMEM33 / RFU, WDR75 / Fold change vs veh, WDR75 / RFU, AHCTF1 / Fold change vs veh, AHCTF1 / RFU, TFRC / Fold change vs veh, TFRC / RFU, ZDHHC17 / Fold change vs veh, ZDHHC17 / RFU, NOM1 / Fold change vs veh, NOM1 / RFU, ARL8B / Fold change vs veh, ARL8B / RFU, ZBTB11 / Fold change vs veh, ZBTB11 / RFU, TAMM41 / Fold change vs veh, TAMM41 / RFU, KIAA1704 /// LOC100996395 / Fold change vs veh, KIAA1704 /// LOC100996395 / RFU, ING1 / Fold change vs veh, ING1 / RFU, TRMT61B / Fold change vs veh, TRMT61B / RFU, FUBP3 / Fold change vs veh, FUBP3 / RFU, TP53 / Fold change vs veh, TP53 / RFU, TNKS2 / Fold change vs veh, TNKS2 / RFU, ZFP14 / Fold change vs veh, ZFP14 / RFU, ACTR2 / Fold change vs veh, ACTR2 / RFU, PPP3R1 / Fold change vs veh, PPP3R1 / RFU, PIK3R1 / Fold change vs veh, PIK3R1 / RFU, HNRNPA1 / Fold change vs veh, HNRNPA1 / RFU, RNF170 / Fold change vs veh, RNF170 / RFU, ZNF28 / Fold change vs veh, ZNF28 / RFU, RNGTT / Fold change vs veh, RNGTT / RFU, OGT / Fold change vs veh, OGT / RFU, BRD1 / Fold change vs veh, BRD1 / RFU, MARS / Fold change vs veh, MARS / RFU, ZNF655 / Fold change vs veh, ZNF655 / RFU, FAHD1 / Fold change vs veh, FAHD1 / RFU, BDP1 / Fold change vs veh, BDP1 / RFU, LRRCC1 / Fold change vs veh, LRRCC1 / RFU, ARID1A / Fold change vs veh, ARID1A / RFU, ZNF146 / Fold change vs veh, ZNF146 / RFU, ZNF330 / Fold change vs veh, ZNF330 / RFU, GPN3 / Fold change vs veh, GPN3 / RFU, C9orf123 / Fold change vs veh, C9orf123 / RFU, N4BP2L2 / Fold change vs veh, N4BP2L2 / RFU, ARFIP1 / Fold change vs veh, ARFIP1 / RFU, FAM179B / Fold change vs veh, FAM179B / RFU, BCL10 / Fold change vs veh, BCL10 / RFU, UHRF1BP1L / Fold change vs veh, UHRF1BP1L / RFU, BET1 / Fold change vs veh, BET1 / RFU, CNOT2 / Fold change vs veh, CNOT2 / RFU, ZNF268 / Fold change vs veh, ZNF268 / Fold change vs veh, ZNF507 / RFU, DGCR2 / Fold change vs veh, DGCR2 / RFU, WDSUB1 / Fold change vs veh, WDSUB1 / Fold change vs veh, HSP90B1 /// MIR3652 / RFU, ADSS / Fold change vs veh, ADSS / RFU, GK / Fold change vs veh, GK / RFU, ZNF148 / Fold change vs veh, ZNF148 / RFU, TAF9 / Fold change vs veh, TAF9 / RFU, SLC1A5 / Fold change vs veh, SLC1A5 / RFU, SLMO2 / Fold change vs veh, SLMO2 / RFU, ABCC4 / Fold change vs veh, ABCC4 / RFU, LOC101060439 /// RAP1B / Fold change vs veh, LOC101060439 /// RAP1B / RFU, RFX7 / Fold change vs veh, RFX7 / RFU, GTPBP10 / Fold change vs veh, GTPBP10 / RFU, CNEP1R1 / Fold change vs veh, CNEP1R1 / RFU, BIVM-ERCC5 /// ERCC5 / Fold change vs veh, BIVM-ERCC5 /// ERCC5 / RFU, ILF3 / Fold change vs veh, ILF3 / RFU 11762660_at / Fold change /veh 11762660_at / RFU VCAN (11757783_s_at) / Fold change /veh VCAN (11757783_s_at) / RFU DDX43 (11728927_at) / Fold change /veh DDX43 (11728927_at) / RFU KRT8 (11758188_x_at) / Fold change /veh KRT8 (11758188_x_at) / RFU NKD1 (11759106_at) / Fold change /veh NKD1 (11759106_at) / RFU SRD5A1 (11742802_a_at) / Fold change /veh SRD5A1 (11742802_a_at) / RFU TPSAB1 /// TPSB2 (11721975_s_at) / Fold change /veh TPSAB1 /// TPSB2 (11721975_s_at) / RFU GSTM3 (11746129_a_at) / Fold change /veh GSTM3 (11746129_a_at) / RFU IL23R (11737362_x_at) / Fold change /veh IL23R (11737362_x_at) / RFU TMEM51 (11727254_a_at) / Fold change /veh TMEM51 (11727254_a_at) / RFU PIWIL2 (11732686_x_at) / Fold change /veh PIWIL2 (11732686_x_at) / RFU ORM1 (11744905_x_at) / Fold change /veh ORM1 (11744905_x_at) / RFU CCDC152 (11743942_at) / Fold change /veh CCDC152 (11743942_at) / RFU ECM1 (11717891_a_at) / Fold change /veh ECM1 (11717891_a_at) / RFU IL23R (11748794_a_at) / Fold change /veh IL23R (11748794_a_at) / RFU TNFAIP8L3 (11732012_x_at) / Fold change /veh TNFAIP8L3 (11732012_x_at) / RFU MBOAT4 (11741988_at) / Fold change /veh MBOAT4 (11741988_at) / RFU 11764193_at / Fold change /veh 11764193_at / RFU TMEM53 (11763286_at) / Fold change /veh TMEM53 (11763286_at) / RFU MAGEB2 (11727129_at) / Fold change /veh MAGEB2 (11727129_at) / RFU TMEM200A (11744735_a_at) / Fold change /veh TMEM200A (11744735_a_at) / RFU CCDC152 (11751479_a_at) / Fold change /veh CCDC152 (11751479_a_at) / RFU FAM211A (11726209_a_at) / Fold change /veh FAM211A (11726209_a_at) / RFU RGS16 (11746705_a_at) / Fold change /veh RGS16 (11746705_a_at) / RFU VCAN (11755009_s_at) / Fold change /veh VCAN (11755009_s_at) / RFU RHOB (11743442_s_at) / Fold change /veh RHOB (11743442_s_at) / RFU RGS16 (11720943_a_at) / Fold change /veh RGS16 (11720943_a_at) / RFU RGS16 (11720944_at) / Fold change /veh RGS16 (11720944_at) / RFU, VPS4B / Fold change vs veh, VPS4B / RFU, CREB1 / Fold change vs veh, CREB1 / RFU, DNAJC13 / Fold change vs veh, DNAJC13 / RFU, GNAQ / Fold change vs veh, GNAQ / RFU, CDK5R1 / Fold change vs veh, CDK5R1 / RFU, ZRANB3 / Fold change vs veh, ZRANB3 / RFU, CUL4A / Fold change vs veh, CUL4A / RFU, CCNY / Fold change vs veh, CCNY / RFU, UFL1 / Fold change vs veh, UFL1 / RFU, COG3 / Fold change vs veh, COG3 / RFU, DIAPH2 / Fold change vs veh, DIAPH2 / RFU, SKA2 / Fold change vs veh, SKA2 / RFU, AFF3 / Fold change vs veh, AFF3 / RFU, LMF1 / Fold change vs veh, LMF1 / RFU, IPO11 / Fold change vs veh, IPO11 / RFU, DFFB / Fold change vs veh, DFFB / RFU, FOXP1 / Fold change vs veh, FOXP1 / RFU, CARD8 / Fold change vs veh, CARD8 / RFU, STRN3 / Fold change vs veh, STRN3 / RFU, ADK / Fold change vs veh, ADK / RFU, RASSF2 / Fold change vs veh, RASSF2 / RFU, WIPF1 / Fold change vs veh, WIPF1 / RFU, LARP1B / Fold change vs veh, LARP1B / RFU, RASA1 / Fold change vs veh, RASA1 / RFU, RB1 / Fold change vs veh, RB1 / RFU, PPFIA1 / Fold change vs veh, PPFIA1 / RFU, MAT2A / Fold change vs veh, MAT2A / RFU, CCT5 / Fold change vs veh, CCT5 / RFU, WDR92 / Fold change vs veh, WDR92 / RFU, CUX1 / Fold change vs veh, CUX1 / RFU, TTC7A / Fold change vs veh, TTC7A / RFU, TMEM135 / Fold change vs veh, TMEM135 / RFU, DEPTOR / Fold change vs veh, DEPTOR / RFU, CPM / Fold change vs veh, CPM / RFU, DNAJB6 / Fold change vs veh, DNAJB6 / RFU, CACNA2D3 / Fold change vs veh, CACNA2D3 / RFU, DTX4 / Fold change vs veh, DTX4 / RFU, TFCP2 / Fold change vs veh, TFCP2 / RFU, GMCL1 /// GMCL1P1 / Fold change vs veh, GMCL1 /// GMCL1P1 / RFU, AEBP2 / Fold change vs veh, AEBP2 / RFU, SNHG1 /// SNORD22 /// SNORD25 /// SNORD26 /// SNORD27 /// SNORD28 /// SNORD29 /// SNORD31 / Fold change vs veh, SNHG1 /// SNORD22 /// SNORD25 /// SNORD26 /// SNORD27 /// SNORD28 /// SNORD29 /// SNORD31 / Fold change (Aza/veh), C12orf56 (ProbeSet 11735607_a_at) / Fold change (ACY-1035/veh), C12orf56 (ProbeSet 11735607_a_at) / Fold change (Aza/veh), FGFR1OP (ProbeSet 11751329_s_at) / Fold change (ACY-1035/veh), FGFR1OP (ProbeSet 11751329_s_at) / Fold change (Aza/veh), VPS36 (ProbeSet 11739960_a_at) / Fold change (ACY-1035/veh), VPS36 (ProbeSet 11739960_a_at) / RFU SYPL1 (11715823_x_at) / Fold change /veh SYPL1 (11715823_x_at) / RFU IGFBP7 (11715501_s_at) / Fold change /veh IGFBP7 (11715501_s_at) / RFU REEP3 (11722064_at) / Fold change /veh REEP3 (11722064_at) / RFU IGLL1 (11728026_x_at) / Fold change /veh IGLL1 (11728026_x_at): dose or concentration left out as unconfirmed.

Each structure is given as a SMILES string.

As to `Nc1ccc(-c2cccs2)cc1NC(=O)c1ccc2c(c1)cc(C1CC1)n2CCN1CCOCC1` [ACY-1035], the “Fold change vs veh, NDUFAF7” value is 1.01.

The record behind these values is article PMC5218480 (PLoS ONE, 2017).
